Where a name gives a salt, the structure may show the parent alone.
Assay: in vitro dissolution test using a microcentrifuge method
Type: physicochemical
Design: AUC / AUC90: concentration or dose not given beside the values
Conditions: for Ziprasidone Concentration: 50 mM MOPS buffer with 150 mM NaCl, pH 7.4, 37° C., supernatant after centrifugation
Experimental: The dissolution of ziprasidone from the complex mixed with various concentration-enhancing polymers was evaluated in an in vitro dissolution test using a microcentrifuge method. […] The polymer amounts are expressed as wt % based on the weight of the complex. […] Ltd., Tokyo, Japan). […] Tests were performed in duplicate. The tubes were placed in a 37° C. temperature-controlled chamber, and 1.8 mL of 50 mM 4-morpholinepropanesulfonic acid (MOPS) buffer with 150 mM NaCl (pH 7.4) was added. The samples were quickly mixed using a vortex mixer for about 60 seconds. […] The resulting supernatant solution was then sampled and diluted 1:4 (by volume) with methanol and then analyzed by high-performance liquid chromatography (HPLC). A Phenomenex Ultracarb 5 ODS HPLC column was used with a mobile phase of 60 vol. % of 0.02 M KH2PO4 (pH 3.0), and 40 vol. % acetonitrile. UV detection was measured at 254 nm. The contents of the tubes were mixed on the vortex mixer and allowed to stand undisturbed at 37° C. until the next sample was taken. […] The concentrations of drug obtained in these samples are shown below. The dissolution of ziprasidone from these complexes mixed with concentration-enhancing polymer was evaluated using the in vitro dissolution test described in the Examples above.

O=C1Cc2cc(CCN3CCN(c4nsc5ccccc45)CC3)c(Cl)cc2N1 [Example C2, ziprasidone mesylate]
AUC90 (dissolution AUC 0-90 min, MOPS buffer pH 7.4, 37° C.): 100 µg·min/mL | AUC (dissolution AUC up to 0 min, MOPS buffer pH 7.4, 37° C.): 0 µg·min/mL | AUC (dissolution AUC up to 4 min, MOPS buffer pH 7.4, 37° C.): 0 µg·min/mL | AUC (dissolution AUC up to 10 min, MOPS buffer pH 7.4, 37° C.): 0 µg·min/mL | AUC (dissolution AUC up to 30 min, MOPS buffer pH 7.4, 37° C.): 0 µg·min/mL | AUC (dissolution AUC up to 60 min, MOPS buffer pH 7.4, 37° C.): 0 µg·min/mL | AUC (dissolution AUC up to 90 min, MOPS buffer pH 7.4, 37° C.): 100 µg·min/mL | Cmax,90 (maximum ziprasidone concentration within 90 min, MOPS buffer pH 7.4, 37° C.): 3000 ng/mL | Ziprasidone Concentration (time 0 min): 0 µg/mL | Ziprasidone Concentration (time 4 min): 3 µg/mL | Ziprasidone Concentration (time 10 min): 1 µg/mL | Ziprasidone Concentration (time 30 min): 1 µg/mL | Ziprasidone Concentration (time 60 min): 1 µg/mL | Ziprasidone Concentration (time 90 min): 1 µg/mL
